Consider one compound from US5620997A, “Isothiazolones” (Warner-Lambert Company, priority 1995, dated 1997).

The target in data set [1] is T1, HIV-1 Nucleocapsid Protein (NCp7) (Human immunodeficiency virus type 1 group M subtype B, UniProt P12493).
T1 construct: The NCp7 protein containing 2 Zn-fingers and 2 Zn ions
Nature of the data set: Fluorescence-based (TSQ) assay of zinc ejection from purified HIV-1 NCp7. Type of data set: biochemical. The note with it: 10 μM compound, 2.8 μM NCp7, 47 μM TSQ, pH 7.4, 26° C., 90 minutes. An excerpt:
The compounds of the present invention cause the extrusion of zinc from the nucleocapsid protein (NCp7) of HIV-1. The NC protein is highly conserved among all retroviruses (South T., Blake P., et al., Biochemistry, 1990;;29:7786) and is essential for viral infectivity (Aldovini A. and Young R., J. Virology, 1990;64:1920 and Gorelick R., Nigida S., et al., J. Virology, 1990;64:3207). The zinc is normally held in NC proteins by 1 or 2 zinc fingers. In the case of HIV-1, 2 zinc fingers are present (Summers M., South T., et al., Biochemistry, 1990;29:329) and are involved specifically with the PSI site on viral RNA which controls the packaging of viral RNA. Interference of this packaging causes the formation of non-infectious virions (Dannull J., Surovoy A., et al., EMBO, 1994;13:1525). It has previously been shown that compounds that cause zinc extrusion have potent anti-HIV activity in multiple cell lines and against all retroviruses (Rice W., Schaeffer C., et al., Nature, 1993;361:473).
A fluorescence-based assay has been developed to monitor the ejection of zinc from purified HIV-1 NCp7. The fluorophore, N-(6-methoxy-8-quinolyl)-p-toluenesulfonamide (TSQ), has an increased fluorescent signal upon bonding zinc ion in solution. The NCp7 protein containing 2 Zn-fingers and 2 Zn ions is incubated with drug causing the extrusion of Zn ions. The released Zn is then sequestered by the TSQ and the increased fluorescence monitored relative to control. The assay was performed as follows: 10 μM compound was added to 2.8 μM NCp7 and 47 μM TSQ in 20 μL of pH 7.4 buffer at 26° C. for 90 minutes. Fluorescence (excitation 355 nm emission 400 nm) was monitored versus time. Controls were the NCp7 under assay conditions without drug, and apo NCp7 (no Zn) with drug. The % Zn extrusion was calculated based on the actual fluorescence measured divided by the fluorescence of all theoretical Zn extruded (5.6 μM)×100.
Table 1 below presents the results of testing several of the invention compounds in zinc extrusion assay described above. The compounds were evaluated for their ability to cause the extrusion of zinc from nucleocapsid protein NCp7 (expressed as % relative to control).

For a further data set, the system named is HIV. The data set is described as follows: CEM cell assay, anti-HIV activity (XTT, protection from viral cytopathic effects). Format: cell-based. The conditions noted are these: Human immunodeficiency virus 1, CCRF-CEM; Effective concentration which protects cells from viral cytopathic effects. The source says: The test systems utilized to establish the cellular antiviral activity of the isothiazolones of Formula I are well recognized in the art and are routinely employed for such purpose. For example, the assay utilized to evaluate the compounds activity against the HIV virus is that employed by the U.S. National Cancer Institute as described by Weislow O. S., et al., J. Natl. Cancer Inst., 1989;81:577-586, incorporated herein by reference.
The procedure is designed to detect agents acting at any stage of the virus reproductive cycle. The assay basically involves the killing of T4 lymphocytes by HIV. Small amounts of HIV are added to cells, and at least two complete cycles of virus reproduction are necessary to obtain the required cell killing. Agents which interact with virions, cells, or virus gene-products to interfere with viral activities will protect cells from cytolysis. The system is automated in several features to accommodate large numbers of candidate agents, and is generally designed to detect anti-HIV activity. However, compounds which degenerate or are rapidly metabolized in the culture conditions may not show activity in this screen.
Yet another test system employed to determine antiviral activity is called the CEM cell assay.
T4 lymphocytes (CEM cell line) are exposed to HIV at a virus to cell ratio approximately 0.05, and plated along with noninfected control cells in 96-well microliter plates.
Candidate agent is dissolved in dimethyl sulfoxide (unless otherwise noted), then diluted 1:200 in cell culture medium. Further dilutions (half-log10) are prepared before adding to an equal volume of medium containing either infected or noninfected cells.
Cultures are incubated at 37° in a 5% carbon dioxide atmosphere for 6 or 7 days. The tetrazolium salt, XTT, is added to all wells, and cultures are incubated to allow formazan color development by viable cells J. National Cancer Institute, 1989;81:577-586. Individual wells are analyzed spectrophotometrically to quantitate formazan production, and in addition are viewed microscopically for detection of viable cells confirmation of protective activity.
Drug-tested virus-infected cells are compared with drug-treated noninfected cells and with other appropriate controls (untreated infected and untreated noninfected cells, drug-contain wells without cells, etc.) on the same plate. Data are reviewed in comparison with other tests done at the same time and a determination about activity is made.
Background: Tetrazolium dyes change colour on reduction, which living cells bring about.

A short description of data set [2]: CEM cell assay, toxicity (growth inhibition). Format: cell-based. The conditions noted are these: human, cem cells; Toxic concentration which inhibits the growth of cells 50% relative to control; read-out: CEM Cell Assay TC50. As to the method:
T4 lymphocytes (CEM cell line) are exposed to HIV at a virus to cell ratio approximately 0.05, and plated along with noninfected control cells in 96-well microliter plates. Candidate agent is dissolved in dimethyl sulfoxide (unless otherwise noted), then diluted 1:200 in cell culture medium. Further dilutions (half-log10) are prepared before adding to an equal volume of medium containing either infected or noninfected cells. Cultures are incubated at 37° in a 5% carbon dioxide atmosphere for 6 or 7 days. The tetrazolium salt, XTT, is added to all wells, and cultures are incubated to allow formazan color development by viable cells J. National Cancer Institute, 1989;81:577-586. Individual wells are analyzed spectrophotometrically to quantitate formazan production, and in addition are viewed microscopically for detection of viable cells confirmation of protective activity. Drug-tested virus-infected cells are compared with drug-treated noninfected cells and with other appropriate controls (untreated infected and untreated noninfected cells, drug-contain wells without cells, etc.) on the same plate. Data are reviewed in comparison with other tests done at the same time and a determination about activity is made.

Consider `NS(=O)(=O)c1ccc(-n2sc3ccccc3c2=O)cc1` [Example 1, 4-(3-Oxo-3h-benzo[d]isothiazol-2-yl)-benzenesulfonamide], for which the “% Zn Extrusion Relative to Control” value in data set [1] is 100%. For the same compound, the EC50 – broadly, the midpoint of the concentration-response curve – with HIV is 5.1 µM. In data set [2], the CC50 turned out to be 21 µM.
